What was measured:
[1] = target: K-Ras^G12C : hSOS1 interaction (Homo sapiens, UniProt Q07889); experiment: Biochemical assay 1: K-Ras^G12C interaction assay with hSOS1 (HTRF); type: binding; settings: read-out: Assay 1 (KRAS-SOS Interaction) activity expressed as IC50
Procedure: Biochemical assay 1: K-Ras^G12C Interaction Assay with hSOS1
This assay quantifies the equilibrium interaction of human SOS1 with K-Ras^Gl2C. Detection of the interaction is achieved by measuring homogenous time-resolved fluorescence resonance energy transfer (HTRF) from antiGST-Europium (FRET donor) bound to GST-K-Ras^G12C to anti-6His-XL665 bound to His-tagged hSOS1 (FRET-acceptor).
The assay buffer contained 5 mM HEPES pH 7.4 (Applichem), 150 mM NaCl (Sigma), 10 mM EDTA (Promega), 1 mM DTT (Thermofisher), 0.05% BSA Fraction V, pH 7.0, (ICN Biomedicals), 0.0025% (v/v) Igepal (Sigma) and 100 mM KF (FLUKA).
Concentrations of protein batches used were optimized to be within the linear range of the HTRF signal. A Ras working solution was prepared in assay buffer containing typically 10 nM GST-hK-RasG12C and 2 nM antiGST-Eu(K) (Cisbio, France). A SOS working solution was prepared in assay buffer containing typically 20 nM His-hSOS1 and 10 nM anti-6His-XL665 (Cisbio, France). An inhibitor control solution was prepared in assay buffer containing 10 nM anti-6His-XL665 without hSOS1.
(§1) Fifty nl of a 100-fold concentrated solution of the test compound in DMSO were transferred into a black microtiter test plate (384 or 1536, Greiner Bio-One, Germany). For this, either a Hummingbird liquid handler (Digilab, MA, USA) or an Echo acoustic system (Labcyte, CA, USA) was used.
(§2) All steps of the assay were performed at 20° C. A volume of 2.5 μl of the Ras working solution was added to all wells of the test plate using a Multidrop dispenser (Thermo Labsystems). After 2 min preincubation, 2.5 μl of the SOS working solution were added to all wells except for those wells at the side of the test plate that were subsequently filled with 2.5 μl of the inhibitor control solution. After 60 min incubation the fluorescence was measured with a Pherastar (BMG, Germany) using the HTRF module (excitation 337 nm, emission 1: 620 nm, emission 2: 665 nm).
(§3) IC50 values were calculated by 4-Parameter fitting using a commercial software package (Genedata Screener, Switzerland).

[2] = target: human SOS1 (loading of human K-Ras^G12C-GDP with fluorescent GTP-analog) (Homo sapiens, UniProt Q07889); experiment: Biochemical assay 3: K-Ras^G12C activation assay by hSOS1 (HTRF); settings: no GTP; for IC50: read-out: Assay 3 (KRAS-Activation by SOS no GTP) activity expressed as IC50; for inhibition at 20 µM: read-out: Assay 3 (KRAS-Activation by SOS no GTP) activity expressed as % inhibition at 20 μM
Text: Biochemical assay 3: K-Ras^G12C Activation Assay by hSOS1
K-Ras is a small GTPase that can bind GDP and GTP. The guanine nucleotide exchange factor SOS catalyzes the activation of K-Ras by promoting the exchange of GDP to GTP. SOS binds to K-Ras-GDP thereby opening the GDP-binding pocket to facilitate GDP release. Rebinding of excess nucleotide leads to dissociation of the K-Ras-SOS intermediate complex leaving K-Ras loaded with the nucleotide.
This assay quantifies human SOS1-mediated loading of human K-Ras^G12C-GDP with a fluorescent GTP-analog. Detection of successful loading is achieved by measuring homogenous time-resolved fluorescence resonance energy transfer (HTRF) from antiGST-Terbium (FRET donor) bound to GST-K-RasG12C to the loaded fluorescent GTP analog (FRET-acceptor).
The fluorescent GTP-analog EDA-GTP-Dy647P1 (2′/3′-O-(2-Aminoethyl-carbamoyl)-guanosine-5′-triphosphate labelled with Dy647P1 (Dyomics GmbH, Germany)) was synthesized by Jena Biosciences GmbH (Germany) and supplied as a 1 mM aqueous solution.
(§4) The assay buffer contained 10 mM HEPES pH 7.4 (Applichem), 150 mM NaCl (Sigma), 5 mM MgCl2 (Sigma), 1 mM DTT (Thermofisher), 0.05% BSA Fraction V, pH 7.0, (ICN Biomedicals), 0.0025% (v/v) Igepal (Sigma).
Concentrations of protein batches used were optimized to be within the linear range of the HTRF signal. A Ras working solution was prepared in assay buffer containing typically 100 nM GST-hK-RasG12C and 2 nM antiGST-Tb (Cisbio, France). A hSOS1 working solution was prepared in assay buffer containing typically 20 nM hSOS1 and 200 nM EDA-GTP-Dy647P1. An inhibitor control solution was prepared in assay buffer containing 200 nM EDA-GTP-Dy647P1 without hSOS1.
as §1
as §2, with “After 10” for “After 2”, “the hSOS1” for “the SOS”, “After 30” for “After 60”
as §3

[3] = target: human SOS1 (nucleotide exchange of K-Ras^G12C) (Homo sapiens, UniProt Q07889); experiment: Biochemical assay 2: K-Ras^G12C activation assay by hSOS1 at high GTP concentration (HTRF); settings: read-out: Assay 2 (KRAS-Activation by SOS high GTP) activity expressed as % inhibition at 20 μM; high GTP; at 20 μM
Text: Biochemical Assay 2: K-Ras^G12C Activation Assay by hSOS1 at High GTP Concentration
This assay quantifies human SOS1-mediated nucleotide exchange of K-Ras^G12C preloaded with a fluorescent […] and in presence of an excess of free GTP. Loaded hK-Ras^G12C generates a high HTRF-signal by energy transfer from antiGST-Terbium (FRET donor) bound to K-Ras to the loaded fluorescent GDP analog (FRET-acceptor). SOS1 activity exchanges the fluorescent GDP for non-fluorescent GTP and therefore leads to a reduction of the HTRF signal.
The fluorescent GDP-analog EDA-GDP-Dy647P1 (2′/3′-O-(2-Aminoethyl-carbamoyl)-guanosine-5′-diphosphate labelled with Dy647P1 (Dyomics GmbH, Germany)) was synthesized by Jena Biosciences GmbH (Germany) and supplied as a 1 mM aqueous solution.
Concentrations of protein batches used were optimized to be within the linear range of the HTRF signal.
Preparation of GST-tagged hK-Ras^Gl2C loaded with fluorescent nucleotide was performed as follows: incubation of 11.5 μM hK-Ras^Gl2C with 5-fold excess GDP-Dy647 nucleotide (54 μM) in 500 μl NLS-buffer (RAS activation Kit Jena Bioscience, Kat. #PR-950) for 10 min at 37° C. Addition of 20 μl 1 M MgCl2 (Sigma) to final 40 mM and store on ice. Purification into buffer (10 mM HEPES pH 7.4 (Applichem), 150 mM NaCl (Sigma), 5 mM MgCl2 (Sigma)) by use of a PD-Minitrap desalting column (GE Healthcare). Concentration of 1 ml purified hK-Ras-GDP-Dy647 is approx. 4-5 μM.
as §4
A Ras working solution was prepared in assay buffer containing typically 80 nM loaded GST-hK-RasG12C-EDA-GDP-Dy647P1 and 2 nM antiGST-Tb (Cisbio, France). A hSOS1 working solution was prepared in assay buffer containing typically 8 nM His-hSOS1 and 100 μM GTP (Jena Bioscience, Germany). An inhibitor control solution was prepared in assay buffer containing the same concentration of […].
as §1
as §2, with “hSOS1” for “SOS”, “20” for “60”
as §3

| SMILES | IC50 [1] [µM] | IC50 [2] [µM] | inhibition at 20 µM [3] [%] | inhibition at 20 µM [2] [%] |
| --- | --- | --- | --- | --- |
| COc1cc2nc(C)nc(N[C@@H](C)c3ccc(-c4ccc5c(ccn5C)c4)s3)c2cc1OC (racemic) [Example 49, 6,7-dimethoxy-2-methyl-N-{1-[5-{1-methyl-1H-indol-5-yl)thiophen-2-yl]ethyl}quinazolin-4-amine] | 19.6 | – | – | – |
| COc1cc2nc(C)nc(N[C@@H](C)c3ccc(-c4ccc5c(c4)OCCO5)s3)c2cc1OC (racemic) [Example 98, N-{1-[5-(2,3-dihydro-1,4-benzodioxin-6-yl)thiophen-2-yl]ethyl}-6,7-dimethoxy-2-methylquinazolin-4-amine] | 16.1 | – | – | – |
| CCCNC(=O)c1ccc(-c2ccc([C@H](C)Nc3nc(C)nc4cc(OC)c(OC)cc34)s2)cc1 (racemic) [Example 141, 4-(5-{1-[(6,7-dimethoxy-2-methylquinazolin-4-yl)amino]ethyl}thiophen-2-yl)-N-propylbenzamide] | 5.63 | 11.1 | – | – |
| COc1cc2nc(C)nc(N[C@@H](C)c3ccc(-c4cccc(OC(F)(F)F)c4)s3)c2cc1OC (racemic) [Example 151, 6,7-dimethoxy-2-methyl-N-[1-{5-[3-(trifluoromethoxy)phenyl]thiophen-2-yl}ethyl]quinazolin-4-amine] | 10.4 | 13.3 | – | – |
| COc1cc2nc(C)nc(N[C@@H](C)c3ccc(-c4ccc5c(c4)OCO5)s3)c2cc1OC (racemic) [Example 163, N-{1-[5-(1,3-benzodioxol-5-yl)thiophen-2-yl]ethyl}-6,7-dimethoxy-2-methylquinazolin-4-amine] | 13.6 | – | – | – |
| COc1cccc(-c2ccc([C@H](C)Nc3nc(C)nc4cc(OC)c(OC)cc34)s2)c1 (racemic) [Example 167, 6,7-dimethoxy-N-{1-[5-(3-methoxyphenyl)thiophen-2-yl]ethyl}-2-methylquinazolin-4-amine] | 16.9 | – | – | – |
| COc1cc2nc(C)nc(N[C@@H](C)c3ccc(-c4cccc(C(F)(F)F)c4)s3)c2cc1OC (racemic) [Example 168, 6,7-dimethoxy-2-methyl-N-[1-{5-[3-(trifluoromethyl)phenyl]thiophen-2-yl}ethyl]quinazolin-4-amine] | 12.2 | – | – | – |
| COc1cc2nc(C)nc(N[C@@H](C)c3ccc(-c4ccc5c(ccn5C)c4)s3)c2cc1OC (stereo in doubt) [Example 49, 6,7-dimethoxy-2-methyl-N-{1-[5-{1-methyl-1H-indol-5-yl)thiophen-2-yl]ethyl}quinazolin-4-amine] | – | – | 35 | 36 |
| COc1cc2nc(C)nc(N[C@@H](C)c3ccc(-c4ccc5c(c4)OCCO5)s3)c2cc1OC (stereo in doubt) [Example 98, N-{1-[5-(2,3-dihydro-1,4-benzodioxin-6-yl)thiophen-2-yl]ethyl}-6,7-dimethoxy-2-methylquinazolin-4-amine] | – | – | 43 | 24 |
| CCCNC(=O)c1ccc(-c2ccc([C@H](C)Nc3nc(C)nc4cc(OC)c(OC)cc34)s2)cc1 (stereo in doubt) [Example 141, 4-(5-{1-[(6,7-dimethoxy-2-methylquinazolin-4-yl)amino]ethyl}thiophen-2-yl)-N-propylbenzamide] | – | – | 25 | – |
| COc1cc2nc(C)nc(N[C@@H](C)c3ccc(-c4cccc(OC(F)(F)F)c4)s3)c2cc1OC (stereo in doubt) [Example 151, 6,7-dimethoxy-2-methyl-N-[1-{5-[3-(trifluoromethoxy)phenyl]thiophen-2-yl}ethyl]quinazolin-4-amine] | – | – | 51 | – |
| COc1cc2nc(C)nc(N[C@@H](C)c3ccc(-c4ccc5c(c4)OCO5)s3)c2cc1OC (stereo in doubt) [Example 163, N-{1-[5-(1,3-benzodioxol-5-yl)thiophen-2-yl]ethyl}-6,7-dimethoxy-2-methylquinazolin-4-amine] | – | – | 42 | 35 |
| COc1cccc(-c2ccc([C@H](C)Nc3nc(C)nc4cc(OC)c(OC)cc34)s2)c1 (stereo in doubt) [Example 167, 6,7-dimethoxy-N-{1-[5-(3-methoxyphenyl)thiophen-2-yl]ethyl}-2-methylquinazolin-4-amine] | – | – | 40 | 37 |
| COc1cc2nc(C)nc(N[C@@H](C)c3ccc(-c4cccc(C(F)(F)F)c4)s3)c2cc1OC (stereo in doubt) [Example 168, 6,7-dimethoxy-2-methyl-N-[1-{5-[3-(trifluoromethyl)phenyl]thiophen-2-yl}ethyl]quinazolin-4-amine] | – | – | 38 | 32 |
